Test system: 171881-019-R-J1-PDC complex spheroid growth, % test/control
Assay: Anticancer human tumor 171881-019-R-J1-PDC patient-derived invasive breast carcinoma cell line growth inhibition [Asc]
Conditions: for IC50: curve of first compound; for viability, T/C: stronger effect = lower value
Experimental: Multicellular complex tumor spheroid response to apoptosis pathway targeting inhibitors Alrizomadlin, Pelcitoclax, and Dasminapant in combination with a variety of drugs and investigational agents in selected tumor cell lines
The MDM2 inhibitor alrizomadlin, the Bcl-2/Bcl-xL inhibitor pelcitoclax, and the IAPs inhibitor dasminapant were evaluated both individually and in combination with standard of care and investigational anticancer small molecules within a complex spheroid model of solid tumors. . Complex spheroids include a stromal component modeled by human endothelial cells (HUVEC) and fibroblasts modeled by human mesenchymal stem cells (MSCs). The concentration ranges selected for each drug and investigational agent were based upon clinically achievable concentrations if the clinical Cmax of the agent was known.
Compounds. The drugs and investigational agents: alrizomadlin (APG-115; NSC831270), pelcitoclax (APG-1252; NSC835773), dasminapant (APG-1387;NSC834197), TAK-243 (NSC785004), copanlisib (NSC809693), olaparib (NSC753686), talazoparib (NSC767125), cobimetinib (NSC 768068), eltanexor (KPT-8602, NSC 794443), abemaciclib (NSC 768073), sotorasib (NSC818433), adagrasib (NSC 831453), MRTX-1133 (NSC 836407), Iadademestat (ORY1001, NSC 806812), and RMC-4630 (NSC839698), were obtained from the NCI Developmental Therapeutics Program Chemical Repository. The FDA-approved anticancer drug set is available from the Developmental Therapeutics Program at https://dtp.cancer.gov/organization/dscb/obtaining/available plates.htm. […] The stock solutions were prepared in dimethyl sulfoxide (DMSO, Sigma-Aldrich, St. Louis, MO, cat. D2650) at 800-fold the tested concentration and stored at -70 degrees C prior to their use. All drugs and investigational agents were tested over a range starting from a high concentration at or near the clinical Cmax and decreasing in half-log increments. If the clinical Cmax for an agent had not been determined, the highest concentration tested was 10 microM.
The patient-derived cancer (PDC) cell lines include five colon adenocarcinomas: 186277-243-T-J2-PDC, 616215-338-R-J1-PDC, 439559-082-T-J2-PDC, 463943-066-T-J2-PDC, and 519858-162-T-J1-PDC; three pancreatic carcinomas: 323965-272-R-J2-PDC, 521955-158-R6-J3-PDC, and 521955-158-R2-J5-PDC; two uterine sarcomas: 327498-152-R-J2-PDC and 993429-296-R-J1-PDC; two rhabdomyosarcomas: 755483-174-R-J1-PDC and 772245-204-R-J1-PDC; two soft tissue sarcomas: 126254-015-R-J1-PDC and 494315-158-R-J1-PDC; two malignant fibrous histiocytomas: 317291-083-R-J1-PDC and 596521-263-R-J1-PDC; two breast carcinomas: 171881-019-R-J1-PDC and 885512-296-R-J2-PDC; and one ovarian carcinoma: 6556581-035-R-J-PDC were obtained from the NCI PDMR, (https://pdmr.cancer.gov). The established cell lines HSSY-2 synovial sarcoma (RRID:CVCL 8719), SYO-1 synovial sarcoma (RRID:CVCL_7146), MPNST malignant peripheral neural sheath tumor were obtained from the Sloan Kettering Institute. The following established cell lines were purchased from the American Type Culture Collection (ATCC, Manassas, VA), Sor the received from the NCI repository:, PANC-1 pancreatic carcinoma (CRL-1469, RRID:CVCL_0480), OVCAR-5 ovarian carcinoma (RRID:CVCL_1628), OVCAR-8 ovarian carcinoma (RRID:CVCL_1629), , MCF-7 breast carcinoma (CRL-12584, RRID:CVCL_0031), MDA-MB-231 breast carcinoma (CRL-12532, RRID:CVCL_0062), NCI-H1876 small cell lung carcinoma (CRL-5902, RRID:CVCL_1503), NCI-H510A small cell lung carcinoma (HTB-184, RRID:CVCL_1565), NCI-H1417 (CRL-5869, RRID:CVCL_1469), and NCI-H196 small cell lung carcinoma (CRL-5823, RRID:CVCL_1509). Dr. Peter Houghton (Greehey Children's Cancer Research Institute, University of Texas Health Science Center, San Antonio, TX) provided Rh-18 rhabdomyosarcoma (RRID:CVCL_1659). Pooled donor human umbilical vein endothelial cells (HUVEC, Lonza, cat. CC-2519) and human mesenchymal stem cells (hMSC, Lonza, cat. PT-2501) were purchased from Lonza (Walkersville, MD).
Cell Culture. […]

[1] = second compound 0.03 µM, first compound 0.00316 µM
[2] = second compound 0.03 µM, first compound 0.01 µM
[3] = second compound 0.03 µM, first compound 0.0316 µM
[4] = second compound 0.03 µM, first compound 0.1 µM
[5] = second compound 0.0949 µM, first compound 0.00316 µM
[6] = second compound 0.0949 µM, first compound 0.01 µM
[7] = second compound 0.0949 µM, first compound 0.0316 µM
[8] = second compound 0.0949 µM, first compound 0.1 µM
[9] = second compound 0.3 µM, first compound 0.00316 µM
[10] = second compound 0.3 µM, first compound 0.01 µM
[11] = second compound 0.3 µM, first compound 0.0316 µM
[12] = second compound 0.3 µM, first compound 0.1 µM
[13] = second compound 0.949 µM, first compound 0.00316 µM
[14] = second compound 0.949 µM, first compound 0.01 µM
[15] = second compound 0.949 µM, first compound 0.0316 µM
[16] = second compound 0.949 µM, first compound 0.1 µM
[17] = second compound 3 µM, first compound 0.00316 µM
[18] = second compound 3 µM, first compound 0.01 µM
[19] = second compound 3 µM, first compound 0.0316 µM
[20] = second compound 3 µM, first compound 0.1 µM
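Wherever viability, T/C is given: spheroids exposed to compounds for 7 days.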

## CCN1CCN(Cc2ccc(Nc3ncc(F)c(-c4cc(F)c5nc(C)n(C(C)C)c5c4)n3)nc2)CC1 + CCN1C(C(=O)NC23CCC(C(=O)O)(CC2)CC3)C(c2cccc(Cl)c2F)C2(C(=O)Nc3cc(Cl)ccc32)C12CCCCC2
Second compound 0.03 µM
  IC50: > 1000 nM
Second compound 0.0949 µM
  IC50: > 1000 nM
Second compound 0.3 µM
  IC50: > 1000 nM
Second compound 0.949 µM
  IC50: > 1000 nM
Second compound 3 µM
  IC50: > 1000 nM
[1]
  viability, T/C: 97.8%
[2]
  viability, T/C: 86.6%
[3]
  viability, T/C: 108%
[4]
  viability, T/C: 128%
Second compound 0.03 µM, first compound 0.316 µM
  viability, T/C: 133%
Second compound 0.03 µM, first compound 1 µM
  viability, T/C: 133%
[5]
  viability, T/C: 104%
[6]
  viability, T/C: 96.2%
[7]
  viability, T/C: 115%
[8]
  viability, T/C: 117%
Second compound 0.0949 µM, first compound 0.316 µM
  viability, T/C: 144%
Second compound 0.0949 µM, first compound 1 µM
  viability, T/C: 144%
[9]
  viability, T/C: 109%
[10]
  viability, T/C: 115%
[11]
  viability, T/C: 109%
[12]
  viability, T/C: 111%
Second compound 0.3 µM, first compound 0.316 µM
  viability, T/C: 129%
Second compound 0.3 µM, first compound 1 µM
  viability, T/C: 126%
[13]
  viability, T/C: 114%
[14]
  viability, T/C: 119%
[15]
  viability, T/C: 112%
[16]
  viability, T/C: 118%
Second compound 0.949 µM, first compound 0.316 µM
  viability, T/C: 129%
Second compound 0.949 µM, first compound 1 µM
  viability, T/C: 143%
[17]
  viability, T/C: 101%
[18]
  viability, T/C: 107%
[19]
  viability, T/C: 115%
[20]
  viability, T/C: 130%
Second compound 3 µM, first compound 0.316 µM
  viability, T/C: 146%
Second compound 3 µM, first compound 1 µM
  viability, T/C: 144%

## NC(=O)C(=Cn1cnc(-c2cc(C(F)(F)F)cc(C(F)(F)F)c2)n1)c1cncnc1 + CCN1C(C(=O)NC23CCC(C(=O)O)(CC2)CC3)C(c2cccc(Cl)c2F)C2(C(=O)Nc3cc(Cl)ccc32)C12CCCCC2
Second compound 0.03 µM
  IC50: 34.5 nM
Second compound 0.0949 µM
  IC50: 29.2 nM
Second compound 0.3 µM
  IC50: 37.4 nM
Second compound 0.949 µM
  IC50: 38.1 nM
Second compound 3 µM
  IC50: 29.3 nM
Second compound 0.03 µM, first compound 0.000949 µM
  viability, T/C: 116%
Second compound 0.03 µM, first compound 0.003 µM
  viability, T/C: 103%
Second compound 0.03 µM, first compound 0.00949 µM
  viability, T/C: 93.8%
Second compound 0.03 µM, first compound 0.03 µM
  viability, T/C: 57.9%
Second compound 0.03 µM, first compound 0.0949 µM
  viability, T/C: 9.64%
Second compound 0.03 µM, first compound 0.3 µM
  viability, T/C: 3.28%
Second compound 0.0949 µM, first compound 0.000949 µM
  viability, T/C: 139%
Second compound 0.0949 µM, first compound 0.003 µM
  viability, T/C: 101%
Second compound 0.0949 µM, first compound 0.00949 µM
  viability, T/C: 100%
Second compound 0.0949 µM, first compound 0.03 µM
  viability, T/C: 48.6%
Second compound 0.0949 µM, first compound 0.0949 µM
  viability, T/C: 10.1%
Second compound 0.0949 µM, first compound 0.3 µM
  viability, T/C: 3.82%
Second compound 0.3 µM, first compound 0.000949 µM
  viability, T/C: 121%
Second compound 0.3 µM, first compound 0.003 µM
  viability, T/C: 118%
Second compound 0.3 µM, first compound 0.00949 µM
  viability, T/C: 108%
Second compound 0.3 µM, first compound 0.03 µM
  viability, T/C: 60.3%
Second compound 0.3 µM, first compound 0.0949 µM
  viability, T/C: 8.36%
Second compound 0.3 µM, first compound 0.3 µM
  viability, T/C: 2.76%
Second compound 0.949 µM, first compound 0.000949 µM
  viability, T/C: 126%
Second compound 0.949 µM, first compound 0.003 µM
  viability, T/C: 115%
Second compound 0.949 µM, first compound 0.00949 µM
  viability, T/C: 114%
Second compound 0.949 µM, first compound 0.03 µM
  viability, T/C: 61%
Second compound 0.949 µM, first compound 0.0949 µM
  viability, T/C: 8.13%
Second compound 0.949 µM, first compound 0.3 µM
  viability, T/C: 0.97%
Second compound 3 µM, first compound 0.000949 µM
  viability, T/C: 111%
Second compound 3 µM, first compound 0.003 µM
  viability, T/C: 117%
Second compound 3 µM, first compound 0.00949 µM
  viability, T/C: 105%
Second compound 3 µM, first compound 0.03 µM
  viability, T/C: 48.8%
Second compound 3 µM, first compound 0.0949 µM
  viability, T/C: 6.01%
Second compound 3 µM, first compound 0.3 µM
  viability, T/C: 1.16%

## NC1CCC(NC2CC2c2ccccc2)CC1 (stereo not given) + CCN1C(C(=O)NC23CCC(C(=O)O)(CC2)CC3)C(c2cccc(Cl)c2F)C2(C(=O)Nc3cc(Cl)ccc32)C12CCCCC2
Second compound 0.03 µM
  IC50: > 100 nM
Second compound 0.0949 µM
  IC50: > 100 nM
Second compound 0.3 µM
  IC50: > 100 nM
Second compound 0.949 µM
  IC50: > 100 nM
Second compound 3 µM
  IC50: > 100 nM
Second compound 0.03 µM, first compound 0.000316 µM
  viability, T/C: 123%
Second compound 0.03 µM, first compound 0.001 µM
  viability, T/C: 120%
[1]
  viability, T/C: 111%
[2]
  viability, T/C: 106%
[3]
  viability, T/C: 110%
[4]
  viability, T/C: 106%
Second compound 0.0949 µM, first compound 0.000316 µM
  viability, T/C: 112%
Second compound 0.0949 µM, first compound 0.001 µM
  viability, T/C: 94.4%
[5]
  viability, T/C: 109%
[6]
  viability, T/C: 118%
[7]
  viability, T/C: 113%
[8]
  viability, T/C: 103%
Second compound 0.3 µM, first compound 0.000316 µM
  viability, T/C: 112%
Second compound 0.3 µM, first compound 0.001 µM
  viability, T/C: 120%
[9]
  viability, T/C: 127%
[10]
  viability, T/C: 107%
[11]
  viability, T/C: 125%
[12]
  viability, T/C: 116%
Second compound 0.949 µM, first compound 0.000316 µM
  viability, T/C: 107%
Second compound 0.949 µM, first compound 0.001 µM
  viability, T/C: 114%
[13]
  viability, T/C: 110%
[14]
  viability, T/C: 121%
[15]
  viability, T/C: 106%
[16]
  viability, T/C: 115%
Second compound 3 µM, first compound 0.000316 µM
  viability, T/C: 102%
Second compound 3 µM, first compound 0.001 µM
  viability, T/C: 118%
[17]
  viability, T/C: 110%
[18]
  viability, T/C: 109%
[19]
  viability, T/C: 110%
[20]
  viability, T/C: 107%
